Reference: patent US20240093236A1, “RAPID HIGH THROUGHPUT SCREENING SYSTEM TO ASSESS POTENTIAL TREATMENTS FOR SPORADIC ALZHEIMER’S DISEASE” (Trustees of Tufts College, priority 2021, published 2024)
“Also recorded” adds a separate entry of the source. Structures can show the parent of a compound that is named as a salt.

How the values were obtained:
[1] = tested on: hiNSCs; assay: Conditioned media (CM) experiment: reactive glia formation in new hiNSCs, TUJ1 and GFAP immunostaining; type: cell-based, human; conditions: VCV in virus CM with fresh HSV-1; new hiNSCs cultured for 4 days
Procedure: Cells grown in tissue culture plates or in 3D scaffolds were fixed in 4% paraformaldehyde and washed with 1×phosphate-buffered saline (PBS). Samples were incubated with a blocking buffer consisting of PBS, 10% goat serum, and 0.1% Triton X-100. Primary antibodies were added to the blocking buffer and incubated with samples overnight at 4° C. The next day, samples were washed several times with PBS and incubated with a corresponding fluorescently conjugated secondary antibody in a blocking buffer for 1 hour at room temperature. Nuclei were counterstained with 4′,6-diamidino-2-phenylindole (Invitrogen).
Moreover, we aimed to understand whether HSV-1-secreted factors could cause gliosis even in the absence of infection (FIG. 7). CM were harvested and filtered from mock- or HSV-1-infected hiNSCs that had been cultured for 2 days. Fresh HSV-1 virus was added to CM in the absence or presence of antiviral treatment VCV, and new hiNSCs were cultured for 4 days. β-III tubulin (TUJ1) and GFAP immunostaining was performed to visualize neurons and glia, respectively.

[2] = tested on: HSV-1; assay: HSV-1 infection of hiNSCs with VCV treatment (HSV immunostaining, qPCR for HSV-UL29); type: cell-based, herpes simplex virus type 1
Procedure: (§1) hiNSC colonies were trypsinized off of MEF feeder layers using TrypLE (Invitrogen) and then dissociated by manual pipetting. Cell suspensions were passaged through a 40- to […] cell strainer to remove larger aggregates. Dissociated hiNSCs were cultured on gelatin-coated plates in neurobasal media supplemented with 2% B27 (Invitrogen), 1% glutamax, and 1% antibiotic-antimycotic. For HSV infection, we used purified HSV-1 to directly infect hiNSCs at a range of MOIs (0.00001 to 1), which was calculated based on the starting virus concentration (2×10^7 PFU/ml) and initial seeding density.
(§2) Once added to media, inoculum was allowed to remain in cell cultures for the duration of the experiment to mimic low-level brain infection. For mock infections, an equal volume of control culture medium from uninfected Vero cells was used. All virus work was approved by the Tufts Institutional Biosafety Committee. Valacyclovir (VCV) HCl was reconstituted in dH2O and used at a concentration of 200 μM for all subsequent experiments. […]
(§3) Total RNA was isolated using the RNeasy Mini Kit (Qiagen). […] Quantitative reverse transcription PCR (qRT-PCR) was performed using SYBR Green and the CFX96 Real-Time PCR Detection System (Bio-Rad) and normalized against the housekeeping gene glyceraldehyde phosphate dehydrogenase. […]

[3] = tested on: HSV-1-infected hiNSCs; assay: Gliosis and neuroinflammation (GFAP, TNFα) in HSV-1-infected hiNSCs, immunostaining and qPCR; type: cell-based, human
Procedure: as §1, §2, §3

[4] = tested on: HSV-1-infected hiNSCs; assay: Aβ+ plaque-like formations (PLFs) in HSV-1-infected hiNSCs, immunostaining; type: cell-based, human; conditions: 200 μM VCV, MOI 0.0001, HCl
Procedure: as §1
(§4) Once added to media, inoculum was allowed to remain in cell cultures for the duration of the experiment to mimic low-level brain infection. For mock infections, an equal volume of control culture medium from uninfected Vero cells was used. All virus work was approved by the Tufts Institutional Biosafety Committee. Valacyclovir (VCV) HCl was reconstituted in dH2O and used at a concentration of 200 μM for all subsequent experiments. VCV was added at day 0 (D0; concurrently with HSV-1 infection) or day 1 (D1; 24 hours after infection).
Cells grown in tissue culture plates or in 3D scaffolds were fixed in 4% paraformaldehyde and washed with 1×phosphate-buffered saline (PBS). Samples were incubated with a blocking buffer consisting of PBS, 10% goat serum, and 0.1% Triton X-100. […]

[5] = tested on: hiNSCs; assay: VCV alone in the absence of virus on hiNSCs; type: cell-based, human; conditions: 200 μM VCV alone, no virus (data not shown)
Procedure: as §4
One of the most commonly used antiviral agents for treating HSV-1 infections is VCV, which specifically targets viral DNA replication in infected cells. We cultured hiNSCs for 4 days before subjecting to either mock or HSV-1 infection (MOI 0.0001). […] We first immunostained against HSV and Aβ (FIG. 4A) to determine any differences in the rate of HSV-1 infection and PLF generation in response to drug treatment.

[6] = tested on: HSV-1-infected hiNSCs; assay: Latency model of HSV-1 infection in hiNSCs (acute infection followed by antiviral treatment), qPCR; type: cell-based, human; conditions: acute HSV-1 infection 24 hrs followed by antiviral treatment (latency induction)
Text: A) Schematic of timeline of HSV-1 and antiviral treatments to induce latency. Acute infection of hiNSCs with HSV-1 for 24 hrs. followed by antiviral treatment results in similar expression patterns of typical AD markers as described previously (B-D). E) This treatment also results in quantifiable expression of HSV-1 latency associated transcript (LAT).
HSV-1 typically lies latent in the peripheral nervous system indefinitely, and it is only upon reactivation that this virus can exert its detrimental effects such as cold sores and potentially neurodegeneration. Understanding potential triggers of this viral reactivation are crucial in elucidating downstream pathways involved in disease pathogenesis. There are currently few if any suitable in vitro models of HSV-1 latency. Here, we describe a method with which to induce latency of HSV-1 in vitro. […] Induction of latency with valacyclovir was also associated with an increase in glial fibrillary acidic protein (GFAP) expression (FIG. 21D), which is indicative of gliosis.

[7] = tested on: APP, BACE1, PSEN1, and PSEN2; assay: qPCR expression of AD mediators (APP, BACE1, PSEN1, PSEN2) in HSV-1-infected hiNSCs; type: cell-based, human; conditions: HSV-1 MOI 0.0001
Procedure: as §1, §2, §3

## CC(C)[C@H](N)C(=O)OCCOCn1cnc2c(=O)[nH]c(N)nc21 [VCV, Valacyclovir HCl]
[1]
  reactive glia formation: increased reactive glia formation
[2]; 200 μM VCV at D0 (concurrently with HSV-1 infection), MOI 0.0001
  HSV-1 infection: almost completely abolished infection
[2]; 200 μM VCV, both drug regimens (D0 or D1), HSV-1 MOI 0.0001, hiNSCs, HCl
  HSV-1 infection (immunostaining and qPCR for HSV-UL29): significant decrease; also recorded: reduces HSV-1 infection
[3]; 200 μM VCV at D0
  GFAP expression (immunostaining and qPCR): almost completely restored
[3]; 200 μM VCV, both D0 and D1 dosing regimens
  pro-inflammatory mediator TNFα: significantly reduced
[4]
  average number of PLFs: significantly reduced; also recorded: decrease
  average size (area) of PLFs: significantly reduced; also recorded: decrease
[5]
  effect on hiNSCs in the absence of virus: no discernible effect
[6]
  HSV-1 latency associated transcript (LAT): significant increase
  PSEN2 expression: significant increase
  glial fibrillary acidic protein (GFAP) expression: increase
[7]; 200 μM VCV at D0
  expression of AD mediators APP, BACE1, PSEN1 and PSEN2 (qPCR): nearly rescued all markers back to control values
[7]; 200 μM VCV at D1 (24 hours after infection)
  expression of AD mediators APP, BACE1, PSEN1 and PSEN2 (qPCR): partial rescue
